ChEMBL document CHEMBL1201862, “PubChem BioAssay data set” (2004)
Active and inactive are the calls of the source.

What was measured:
[1] = molecular target: T1, Replicative DNA helicase DnaB (Mycobacterium tuberculosis, UniProt P9WMR3); assay: DnaB intein splicing inhibitors, dose response, biochemical, cell-free fluorescence (AID 449749); type: functional
T1 sequence (P9WMR3 whole entry): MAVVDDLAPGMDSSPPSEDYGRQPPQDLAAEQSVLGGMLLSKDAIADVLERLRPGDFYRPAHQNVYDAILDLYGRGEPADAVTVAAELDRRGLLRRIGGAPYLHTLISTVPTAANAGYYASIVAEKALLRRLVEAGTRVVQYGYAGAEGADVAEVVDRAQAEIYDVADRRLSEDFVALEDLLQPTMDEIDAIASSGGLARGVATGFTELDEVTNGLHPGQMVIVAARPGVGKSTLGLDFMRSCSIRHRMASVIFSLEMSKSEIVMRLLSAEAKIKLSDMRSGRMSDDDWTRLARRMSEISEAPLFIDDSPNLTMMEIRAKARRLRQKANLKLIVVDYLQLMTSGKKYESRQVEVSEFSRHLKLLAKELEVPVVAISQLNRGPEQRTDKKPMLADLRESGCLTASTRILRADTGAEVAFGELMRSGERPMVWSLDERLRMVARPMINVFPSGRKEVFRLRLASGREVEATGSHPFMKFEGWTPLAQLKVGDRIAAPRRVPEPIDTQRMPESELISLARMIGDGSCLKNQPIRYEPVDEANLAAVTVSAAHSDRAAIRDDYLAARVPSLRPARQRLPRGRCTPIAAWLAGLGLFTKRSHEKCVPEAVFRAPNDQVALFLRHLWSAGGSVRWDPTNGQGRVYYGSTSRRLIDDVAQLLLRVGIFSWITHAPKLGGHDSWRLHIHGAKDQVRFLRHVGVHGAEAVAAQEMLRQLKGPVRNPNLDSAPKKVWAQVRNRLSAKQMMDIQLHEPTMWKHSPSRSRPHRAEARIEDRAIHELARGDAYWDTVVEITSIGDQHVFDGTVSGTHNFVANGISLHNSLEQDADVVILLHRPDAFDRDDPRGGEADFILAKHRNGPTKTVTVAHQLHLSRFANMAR

Streptokinase A = molecular target: T2, Streptokinase A (Streptococcus pyogenes serotype M1, UniProt P10520); assay: viability-normalized secreted streptokinase activity reduction – plasminogen activation absorbance, OD405, dose response (AID 1914); type: functional, Streptococcus pyogenes M1 GAS;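 note: secreted streptokinase activity via plasminogen activation per viability signal from cell pellet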
T2 sequence (P10520 whole entry): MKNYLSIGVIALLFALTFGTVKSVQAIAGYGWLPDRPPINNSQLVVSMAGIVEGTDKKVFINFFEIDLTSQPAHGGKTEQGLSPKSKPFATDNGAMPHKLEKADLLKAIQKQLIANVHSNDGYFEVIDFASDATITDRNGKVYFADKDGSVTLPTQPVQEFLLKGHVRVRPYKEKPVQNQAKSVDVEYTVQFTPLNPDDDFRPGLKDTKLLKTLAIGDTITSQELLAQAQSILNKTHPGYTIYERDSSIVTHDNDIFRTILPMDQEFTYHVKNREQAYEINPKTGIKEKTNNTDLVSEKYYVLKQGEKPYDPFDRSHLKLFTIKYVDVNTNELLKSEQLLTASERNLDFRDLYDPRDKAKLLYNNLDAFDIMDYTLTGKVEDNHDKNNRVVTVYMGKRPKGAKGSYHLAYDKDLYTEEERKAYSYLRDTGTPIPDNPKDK

Streptococcus = assay: GAS UMAA2166 growth inhibition – luminescence, BacTiterGlo, counter-screen for streptokinase expression inhibitor project, dose response (AID 1915); type: functional, organism-based;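 note: potency for reduction of bacterial viability or growth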
[2] = molecular target: Tyrosine-protein kinase ABL1 (Homo sapiens, UniProt P00519); type: functional
[3] = molecular target: Vascular endothelial growth factor receptor 2 (Homo sapiens, UniProt P35968); type: functional
[4] = molecular target: Megakaryocyte-associated tyrosine-protein kinase (Homo sapiens, UniProt P42679); type: functional;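 note: affinity measured as one member of a kinase panel (Navigating the Kinome) against MATK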
[5] = molecular target: Serine/threonine-protein kinase 17A (Homo sapiens, UniProt Q9UEE5); type: functional
[6] = molecular target: MAP kinase-activated protein kinase 5 (Homo sapiens, UniProt Q8IW41); type: functional;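 note: measured as one member of a kinome panel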
[7] = molecular target: MAP kinase-activated protein kinase 2 (Homo sapiens, UniProt P49137); type: functional;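 note: measured as one member of a kinome-wide kinase panel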
[8] = molecular target: Casein kinase I isoform gamma-1 (Homo sapiens, UniProt Q9HCP0); type: functional;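 note: measured as the CSNK1G1 member of a kinome profiling panel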
Chain of Casein kinase I isoform gamma-1 (Q9HCP0 whole entry, canonical isoform): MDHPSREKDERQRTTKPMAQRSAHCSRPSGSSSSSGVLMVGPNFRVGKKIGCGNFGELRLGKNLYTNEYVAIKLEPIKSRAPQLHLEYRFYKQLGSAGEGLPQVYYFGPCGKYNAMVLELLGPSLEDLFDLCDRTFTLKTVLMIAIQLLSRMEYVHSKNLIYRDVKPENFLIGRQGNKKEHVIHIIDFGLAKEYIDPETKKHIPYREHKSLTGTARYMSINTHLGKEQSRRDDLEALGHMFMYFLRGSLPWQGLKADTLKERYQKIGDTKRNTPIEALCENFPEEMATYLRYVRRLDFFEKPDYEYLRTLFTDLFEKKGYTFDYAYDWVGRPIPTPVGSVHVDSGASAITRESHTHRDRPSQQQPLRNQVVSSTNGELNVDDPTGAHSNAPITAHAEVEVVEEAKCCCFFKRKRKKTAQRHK

[9] = molecular target: Proto-oncogene tyrosine-protein kinase ROS (Homo sapiens, UniProt P08922); type: functional;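 note: ROS1 tested as one member of a kinome-wide kinase panel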
Insulin receptor = Insulin receptor (Homo sapiens, UniProt P06213); type: functional;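 note: insulin receptor kinase tested as one member of a kinome-wide kinase panel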
[10] = molecular target: Tyrosine-protein kinase Srms (Homo sapiens, UniProt Q9H3Y6); type: functional;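 note: SRMS measured as one member of a kinome-wide kinase profiling panel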
[11] = molecular target: Platelet-derived growth factor receptor beta (Homo sapiens, UniProt P09619); type: functional;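 note: value comes from a kinome panel, with PDGFRB tested as one panel member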
Chain of Platelet-derived growth factor receptor beta (P09619 whole entry): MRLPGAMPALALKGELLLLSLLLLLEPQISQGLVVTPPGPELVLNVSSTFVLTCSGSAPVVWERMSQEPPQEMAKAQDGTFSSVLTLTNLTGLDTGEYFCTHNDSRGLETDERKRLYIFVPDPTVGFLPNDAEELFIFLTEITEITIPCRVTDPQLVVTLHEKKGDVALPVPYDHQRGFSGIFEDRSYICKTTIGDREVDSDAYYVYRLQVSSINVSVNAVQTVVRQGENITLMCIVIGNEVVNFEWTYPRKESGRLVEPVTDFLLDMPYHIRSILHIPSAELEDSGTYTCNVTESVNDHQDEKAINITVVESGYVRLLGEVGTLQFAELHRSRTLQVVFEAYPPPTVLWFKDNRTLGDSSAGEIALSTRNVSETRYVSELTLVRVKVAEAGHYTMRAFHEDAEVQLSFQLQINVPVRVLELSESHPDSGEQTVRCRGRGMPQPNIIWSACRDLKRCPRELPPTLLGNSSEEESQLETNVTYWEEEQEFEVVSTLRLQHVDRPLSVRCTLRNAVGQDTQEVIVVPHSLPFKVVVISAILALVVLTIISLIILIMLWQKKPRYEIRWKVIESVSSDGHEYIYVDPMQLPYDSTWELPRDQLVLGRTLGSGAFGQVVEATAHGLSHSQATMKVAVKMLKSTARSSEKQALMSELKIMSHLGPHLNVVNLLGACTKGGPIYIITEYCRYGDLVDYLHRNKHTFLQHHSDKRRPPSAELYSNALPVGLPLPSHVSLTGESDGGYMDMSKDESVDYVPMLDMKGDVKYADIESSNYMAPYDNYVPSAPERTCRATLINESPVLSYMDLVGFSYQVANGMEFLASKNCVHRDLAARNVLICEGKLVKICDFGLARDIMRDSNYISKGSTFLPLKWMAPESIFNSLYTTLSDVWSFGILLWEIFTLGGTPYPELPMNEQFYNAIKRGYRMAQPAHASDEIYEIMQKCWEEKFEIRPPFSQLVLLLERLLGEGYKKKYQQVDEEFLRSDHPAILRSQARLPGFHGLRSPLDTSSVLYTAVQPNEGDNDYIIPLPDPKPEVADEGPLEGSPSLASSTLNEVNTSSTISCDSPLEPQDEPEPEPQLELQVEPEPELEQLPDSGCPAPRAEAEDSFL

[12] = molecular target: Calcium/calmodulin-dependent protein kinase type II subunit beta (Homo sapiens, UniProt Q13554); type: functional
Chain of Calcium/calmodulin-dependent protein kinase type II subunit beta (Q13554 whole entry): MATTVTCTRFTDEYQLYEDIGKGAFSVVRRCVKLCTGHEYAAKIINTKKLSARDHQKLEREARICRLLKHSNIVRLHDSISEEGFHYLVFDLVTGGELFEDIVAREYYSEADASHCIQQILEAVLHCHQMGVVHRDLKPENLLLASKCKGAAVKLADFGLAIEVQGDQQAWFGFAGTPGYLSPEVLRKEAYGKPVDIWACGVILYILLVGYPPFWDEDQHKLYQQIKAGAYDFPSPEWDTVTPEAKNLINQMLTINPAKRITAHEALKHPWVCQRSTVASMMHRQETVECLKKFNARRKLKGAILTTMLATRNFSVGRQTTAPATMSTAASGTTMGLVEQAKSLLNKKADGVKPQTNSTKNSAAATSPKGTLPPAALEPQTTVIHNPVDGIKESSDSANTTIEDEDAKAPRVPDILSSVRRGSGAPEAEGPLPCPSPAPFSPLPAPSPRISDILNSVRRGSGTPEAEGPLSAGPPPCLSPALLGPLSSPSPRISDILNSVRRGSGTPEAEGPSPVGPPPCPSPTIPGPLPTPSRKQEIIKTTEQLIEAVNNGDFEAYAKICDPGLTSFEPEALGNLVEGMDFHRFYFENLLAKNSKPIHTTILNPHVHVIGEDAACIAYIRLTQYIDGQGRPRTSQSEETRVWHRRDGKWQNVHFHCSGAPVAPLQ

Ephrin type-A receptor 2 = Ephrin type-A receptor 2 (Homo sapiens, UniProt P29317); type: functional;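 note: EPHA2 tested as one member of a kinome-wide kinase panel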
Misshapen-like kinase 1 = Misshapen-like kinase 1 (Homo sapiens, UniProt Q8N4C8); type: functional;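 note: kinome panel screen with MINK as the panel member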
[13] = molecular target: Maternal embryonic leucine zipper kinase (Homo sapiens, UniProt Q14680); type: functional
[14] = molecular target: Vascular endothelial growth factor receptor 3 (Homo sapiens, UniProt P35916); type: functional;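 note: value from a kinome-wide profiling panel, with FLT4 as the panel member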
[15] = molecular target: Homeodomain-interacting protein kinase 4 (Homo sapiens, UniProt Q8NE63); type: functional
Chain of Homeodomain-interacting protein kinase 4 (Q8NE63 whole entry): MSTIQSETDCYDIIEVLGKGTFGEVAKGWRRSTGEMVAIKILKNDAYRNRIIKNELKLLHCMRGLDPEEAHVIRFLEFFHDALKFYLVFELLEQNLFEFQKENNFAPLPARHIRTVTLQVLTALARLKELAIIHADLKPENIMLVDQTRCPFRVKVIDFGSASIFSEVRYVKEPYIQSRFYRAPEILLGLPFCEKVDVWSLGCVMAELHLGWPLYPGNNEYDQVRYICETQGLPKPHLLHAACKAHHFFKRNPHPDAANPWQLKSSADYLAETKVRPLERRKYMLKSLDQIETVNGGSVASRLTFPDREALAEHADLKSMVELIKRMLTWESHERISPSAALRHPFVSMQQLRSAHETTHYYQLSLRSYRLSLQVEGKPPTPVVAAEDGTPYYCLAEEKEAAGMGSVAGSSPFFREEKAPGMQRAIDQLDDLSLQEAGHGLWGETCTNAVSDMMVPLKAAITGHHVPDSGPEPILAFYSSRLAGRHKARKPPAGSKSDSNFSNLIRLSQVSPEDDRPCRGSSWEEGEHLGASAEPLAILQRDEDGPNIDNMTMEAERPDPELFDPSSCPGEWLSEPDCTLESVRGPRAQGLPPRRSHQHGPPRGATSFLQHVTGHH

[16] = molecular target: Serine/threonine-protein kinase pim-2 (Homo sapiens, UniProt Q9P1W9); type: functional;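 note: value comes from a broad kinase panel profiling study in which PIM2 was one of the panel members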
[17] = molecular target: 3-phosphoinositide-dependent protein kinase 1 (Homo sapiens, UniProt O15530); type: functional;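 note: value comes from the Navigating the Kinome panel, PDPK1 member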
[18] = molecular target: STE20-like serine/threonine-protein kinase (Homo sapiens, UniProt Q9H2G2); type: functional
Chain of STE20-like serine/threonine-protein kinase (Q9H2G2 whole entry): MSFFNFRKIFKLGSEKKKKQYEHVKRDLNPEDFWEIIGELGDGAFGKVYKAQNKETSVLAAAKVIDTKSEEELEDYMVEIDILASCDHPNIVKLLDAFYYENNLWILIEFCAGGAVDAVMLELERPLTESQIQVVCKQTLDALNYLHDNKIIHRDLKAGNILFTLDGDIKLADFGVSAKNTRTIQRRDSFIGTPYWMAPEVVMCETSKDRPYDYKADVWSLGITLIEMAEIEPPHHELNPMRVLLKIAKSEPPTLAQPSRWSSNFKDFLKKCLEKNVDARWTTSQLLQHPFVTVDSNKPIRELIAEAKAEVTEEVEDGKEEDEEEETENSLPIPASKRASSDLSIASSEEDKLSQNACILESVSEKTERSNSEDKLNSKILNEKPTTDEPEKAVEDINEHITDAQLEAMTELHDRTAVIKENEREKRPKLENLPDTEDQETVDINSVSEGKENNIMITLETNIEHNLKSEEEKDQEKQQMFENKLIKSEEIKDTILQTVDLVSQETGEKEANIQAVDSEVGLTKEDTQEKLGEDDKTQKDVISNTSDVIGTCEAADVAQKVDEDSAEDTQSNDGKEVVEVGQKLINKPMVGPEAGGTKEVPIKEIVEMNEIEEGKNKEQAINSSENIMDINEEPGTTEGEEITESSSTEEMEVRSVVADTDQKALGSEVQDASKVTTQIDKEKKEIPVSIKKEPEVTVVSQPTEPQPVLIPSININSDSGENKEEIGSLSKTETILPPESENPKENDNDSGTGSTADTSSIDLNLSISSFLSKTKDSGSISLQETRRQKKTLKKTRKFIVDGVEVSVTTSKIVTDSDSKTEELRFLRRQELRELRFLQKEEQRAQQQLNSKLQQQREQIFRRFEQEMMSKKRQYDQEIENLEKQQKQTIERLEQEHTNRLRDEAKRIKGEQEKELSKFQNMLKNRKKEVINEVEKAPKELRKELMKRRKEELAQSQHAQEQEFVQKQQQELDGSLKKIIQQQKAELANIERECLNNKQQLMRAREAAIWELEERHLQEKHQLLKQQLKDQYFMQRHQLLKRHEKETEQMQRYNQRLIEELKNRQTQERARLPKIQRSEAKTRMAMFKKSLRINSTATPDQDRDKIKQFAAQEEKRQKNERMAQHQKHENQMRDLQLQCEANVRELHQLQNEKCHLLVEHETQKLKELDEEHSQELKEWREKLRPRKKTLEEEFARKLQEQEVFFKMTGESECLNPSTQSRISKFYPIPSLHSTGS

[19] = molecular target: Receptor tyrosine-protein kinase erbB-4 (Homo sapiens, UniProt Q15303); type: functional;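 note: ERBB4 member of a kinome-wide kinase profiling panel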
[20] = molecular target: Serine/threonine-protein kinase BRSK1 (Homo sapiens, UniProt Q8TDC3); type: functional;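 note: measured within a kinome-wide kinase panel, with the target listed as KIAA1811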
[21] = molecular target: Tyrosine-protein kinase receptor UFO (Homo sapiens, UniProt P30530); type: functional
Chain of Tyrosine-protein kinase receptor UFO (P30530 whole entry): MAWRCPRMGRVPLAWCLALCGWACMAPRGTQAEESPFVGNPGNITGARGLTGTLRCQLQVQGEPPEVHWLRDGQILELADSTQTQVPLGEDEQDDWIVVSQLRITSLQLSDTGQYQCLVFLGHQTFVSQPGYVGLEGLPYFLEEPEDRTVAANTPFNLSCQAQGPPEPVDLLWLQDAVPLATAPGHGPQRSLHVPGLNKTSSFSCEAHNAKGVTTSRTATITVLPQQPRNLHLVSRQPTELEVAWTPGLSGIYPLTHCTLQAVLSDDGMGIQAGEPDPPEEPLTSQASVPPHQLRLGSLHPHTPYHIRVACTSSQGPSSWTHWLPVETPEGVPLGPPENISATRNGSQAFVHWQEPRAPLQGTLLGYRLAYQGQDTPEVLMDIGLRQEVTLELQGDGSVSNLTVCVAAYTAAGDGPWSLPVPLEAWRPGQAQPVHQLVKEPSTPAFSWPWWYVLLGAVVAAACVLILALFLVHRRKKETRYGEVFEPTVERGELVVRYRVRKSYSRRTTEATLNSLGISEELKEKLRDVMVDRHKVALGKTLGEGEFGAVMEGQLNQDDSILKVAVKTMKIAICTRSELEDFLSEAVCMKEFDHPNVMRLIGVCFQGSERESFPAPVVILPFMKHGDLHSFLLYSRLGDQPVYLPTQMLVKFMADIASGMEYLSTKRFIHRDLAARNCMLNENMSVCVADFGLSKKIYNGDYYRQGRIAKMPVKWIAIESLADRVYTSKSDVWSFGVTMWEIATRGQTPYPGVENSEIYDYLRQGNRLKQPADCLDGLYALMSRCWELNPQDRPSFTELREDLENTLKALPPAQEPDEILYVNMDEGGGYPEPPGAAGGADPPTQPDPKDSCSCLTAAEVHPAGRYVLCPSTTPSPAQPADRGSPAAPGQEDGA

[22] = molecular target: Tyrosine-protein kinase FRK (Homo sapiens, UniProt P42685); type: functional;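 note: FRK tested as one member of a kinome panel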

Cc1ccc(NC2=C(NCCO)C(=O)c3ccccc3C2=O)cc1
AC50 [1]: 40.3 µM (active)

CC(/C=C1\SC(=S)N(NS(=O)(=O)c2ccc(C)cc2)C1=O)=C\c1ccccc1
EC50 (Streptokinase A): > 150 µM (not active) | EC50 (Streptococcus): 8.34 µM (active)

COc1ccc(C2=NNc3cccc4c(OC)ccc2c34)cc1OC
Ki [2]: > 2.51 µM (inactive) | Ki [3]: > 2.51 µM (inactive)

CN1CCC(c2c(O)cc(O)c3c(=O)cc(-c4ccccc4Cl)oc23)C(O)C1 (centres undefined)
Ki [4]: 316 nM (active) | Ki [5]: > 3.98 µM (inactive) | Ki [6]: > 1.58 µM (inactive) | Ki [7]: > 7.94 µM (inactive) | Ki [8]: > 6.31 µM (inactive) | Ki [9]: 251 nM (active) | Ki (Insulin receptor): > 5.01 µM (inactive) | Ki [10]: > 1.58 µM (inactive) | Ki [11]: > 2 µM (inactive) | Ki [12]: 5.01 µM (active) | pKi [12]: 5.3 | Ki (Ephrin type-A receptor 2): 2 µM (active) | Ki (Misshapen-like kinase 1): > 7.94 µM (inactive) | Ki [13]: > 2 µM (inactive) | Ki [14]: > 6.31 µM (inactive) | Ki [15]: > 7.94 µM (inactive) | Ki [16]: 1 µM (active) | Ki [17]: > 3.98 µM (inactive) | Ki [18]: > 10 µM (inactive) | Ki [19]: > 3.98 µM (inactive) | Ki [20]: > 10 µM (inactive) | Ki [21]: 1 µM (active) | pKi [21]: 6 | Ki [22]: > 2.51 µM (inactive)
